ChEMBL document CHEMBL4393668, “Discovery and Characterization of XY101, a Potent, Selective, and Orally Bioavailable RORγ Inverse Agonist for Treatment of Castration-Resistant Prostate Cancer” (J Med Chem, 2019)

What was measured:
[1] = target: T1, Nuclear receptor ROR-gamma (Homo sapiens, UniProt P51449); assay: Inverse agonist activity at Gal4-fused RORgamma LBD (unknown origin) expressed in 293T cells measured after 24 hrs by dual-luciferase reporter gene assay; assay type: cell-based
T1 sequence (P51449 whole entry): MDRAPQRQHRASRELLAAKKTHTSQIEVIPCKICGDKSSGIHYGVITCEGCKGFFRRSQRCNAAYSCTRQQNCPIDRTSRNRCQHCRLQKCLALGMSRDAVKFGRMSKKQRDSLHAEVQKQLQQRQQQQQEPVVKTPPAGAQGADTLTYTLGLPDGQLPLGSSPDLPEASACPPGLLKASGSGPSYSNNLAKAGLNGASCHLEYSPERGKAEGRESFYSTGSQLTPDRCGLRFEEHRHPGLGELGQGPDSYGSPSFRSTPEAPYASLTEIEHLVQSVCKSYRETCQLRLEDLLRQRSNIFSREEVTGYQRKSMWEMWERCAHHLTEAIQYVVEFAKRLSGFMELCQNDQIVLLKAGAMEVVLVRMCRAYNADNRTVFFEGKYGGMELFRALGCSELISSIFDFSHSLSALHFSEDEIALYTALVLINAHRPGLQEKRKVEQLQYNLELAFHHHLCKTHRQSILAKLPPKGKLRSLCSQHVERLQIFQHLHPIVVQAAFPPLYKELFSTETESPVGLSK

[2] = target: T2, Nuclear receptor ROR-gamma (Homo sapiens) (UniProt P51449)
T2 sequence (whole entry): T1 sequence (P51449 whole entry)

in vivo [3] = settings: Sprague-Dawley, rat, po, 10 mg/kg
in vitro = settings: rat, liver microsomes
Description: Stability in rat liver microsomes assessed as parent compound remaining at 10 uM measured after 60 mins by LC-MS/MS analysis

in vivo [4] = settings: Sprague-Dawley, rat, iv, 2 mg/kg
in vivo [5] = settings: Sprague-Dawley, rat, iv, 2 mg/kg; remark: listed apart in the source
[6] = rat, in vivo, iv, 2 mg/kg
Description: Apparent volume of distribution in Sprague-Dawley rat at 2 mg/kg, iv

in vivo [7] = settings: Sprague-Dawley, rat, po, 10 mg/kg; remark: listed apart in the source
[8] = target: T3, Nuclear receptor ROR-beta (Homo sapiens, UniProt Q92753)
T3 sequence (Q92753 whole entry): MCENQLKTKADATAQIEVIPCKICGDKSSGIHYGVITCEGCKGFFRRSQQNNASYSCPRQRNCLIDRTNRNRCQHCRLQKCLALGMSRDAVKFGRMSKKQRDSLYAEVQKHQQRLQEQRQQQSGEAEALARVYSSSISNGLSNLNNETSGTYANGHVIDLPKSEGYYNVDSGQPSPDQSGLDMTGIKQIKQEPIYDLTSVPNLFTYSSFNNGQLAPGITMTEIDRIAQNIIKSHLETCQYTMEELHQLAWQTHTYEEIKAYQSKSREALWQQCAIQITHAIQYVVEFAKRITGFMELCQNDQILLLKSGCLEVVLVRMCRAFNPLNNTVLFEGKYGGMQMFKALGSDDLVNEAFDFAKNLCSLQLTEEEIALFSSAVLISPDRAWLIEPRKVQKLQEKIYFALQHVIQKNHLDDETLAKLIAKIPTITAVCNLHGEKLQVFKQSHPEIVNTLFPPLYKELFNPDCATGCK

Bile acid receptor [9] = target: T4, Bile acid receptor (Homo sapiens, UniProt Q96RI1)
T4 sequence (Q96RI1 whole entry): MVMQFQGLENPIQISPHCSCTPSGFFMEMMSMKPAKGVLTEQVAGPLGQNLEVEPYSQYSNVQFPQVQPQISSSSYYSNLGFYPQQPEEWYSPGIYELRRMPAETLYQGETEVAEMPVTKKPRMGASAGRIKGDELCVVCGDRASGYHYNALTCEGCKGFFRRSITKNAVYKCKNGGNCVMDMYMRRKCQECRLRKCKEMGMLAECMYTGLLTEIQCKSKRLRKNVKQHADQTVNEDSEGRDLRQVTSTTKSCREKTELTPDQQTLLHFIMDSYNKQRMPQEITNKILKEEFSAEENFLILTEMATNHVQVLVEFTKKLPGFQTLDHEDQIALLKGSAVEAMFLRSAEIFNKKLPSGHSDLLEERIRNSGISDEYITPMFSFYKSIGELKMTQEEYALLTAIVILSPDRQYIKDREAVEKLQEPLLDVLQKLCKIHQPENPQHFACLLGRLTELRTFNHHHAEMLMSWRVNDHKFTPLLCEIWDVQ

in vivo [10] = settings: Sprague-Dawley, rat, po, 10 mg/kg; remark: listed apart in the source
Description: Half life in Sprague-Dawley rat at 10 mg/kg, po

in vivo [11] = settings: Sprague-Dawley, rat, iv, 2 mg/kg; remark: listed apart in the source
Description: Half life in Sprague-Dawley rat at 2 mg/kg, iv

in vivo [12] = settings: Sprague-Dawley, rat, po, 10 mg/kg; remark: listed apart in the source
in vivo [13] = settings: Sprague-Dawley, rat, po, 10 mg/kg; remark: listed apart in the source
in vivo [14] = settings: Sprague-Dawley, rat, iv, 2 mg/kg; remark: listed apart in the source
[15] = target: T5, Nuclear receptor ROR-alpha (Homo sapiens, UniProt P35398)
T5 sequence (P35398 whole entry): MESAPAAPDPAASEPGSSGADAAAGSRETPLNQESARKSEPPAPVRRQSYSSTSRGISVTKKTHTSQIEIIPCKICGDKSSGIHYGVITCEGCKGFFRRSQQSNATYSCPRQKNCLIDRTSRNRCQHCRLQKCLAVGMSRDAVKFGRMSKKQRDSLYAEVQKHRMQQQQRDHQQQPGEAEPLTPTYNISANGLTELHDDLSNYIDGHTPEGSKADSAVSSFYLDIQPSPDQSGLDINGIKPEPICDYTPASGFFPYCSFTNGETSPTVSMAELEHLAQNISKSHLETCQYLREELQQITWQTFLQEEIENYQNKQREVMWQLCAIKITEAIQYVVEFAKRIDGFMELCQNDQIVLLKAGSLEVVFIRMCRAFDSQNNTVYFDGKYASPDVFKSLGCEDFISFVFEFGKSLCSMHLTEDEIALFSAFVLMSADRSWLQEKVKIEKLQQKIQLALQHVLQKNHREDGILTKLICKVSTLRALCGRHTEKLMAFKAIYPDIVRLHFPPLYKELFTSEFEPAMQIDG

in vivo [16] = settings: Sprague-Dawley, rat, iv, 2 mg/kg; remark: listed apart in the source
[17] = target: T6, Oxysterols receptor LXR-alpha (Homo sapiens, UniProt Q13133)
T6 sequence (Q13133 whole entry): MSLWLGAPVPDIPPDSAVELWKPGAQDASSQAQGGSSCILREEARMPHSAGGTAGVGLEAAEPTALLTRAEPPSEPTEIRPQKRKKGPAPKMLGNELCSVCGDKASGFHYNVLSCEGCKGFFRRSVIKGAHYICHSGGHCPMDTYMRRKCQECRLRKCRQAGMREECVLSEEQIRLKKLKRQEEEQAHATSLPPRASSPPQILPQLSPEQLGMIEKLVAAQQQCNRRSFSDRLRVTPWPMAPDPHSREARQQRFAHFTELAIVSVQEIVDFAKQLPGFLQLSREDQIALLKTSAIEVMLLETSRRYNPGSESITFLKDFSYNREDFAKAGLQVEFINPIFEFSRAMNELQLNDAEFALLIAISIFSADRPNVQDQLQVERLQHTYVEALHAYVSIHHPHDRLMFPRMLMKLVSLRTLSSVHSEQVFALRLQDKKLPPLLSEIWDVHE

[18] = target: T2, Nuclear receptor ROR-gamma (Homo sapiens); assay: Inverse agonist activity at Gal4-fused RORgamma LBD (unknown origin) expressed in 293T cells measured after 24 hrs by dual-luciferase reporter gene assay relative to control; assay type: cell-based
in vivo [19] = settings: Sprague-Dawley, rat, po, 10 mg/kg; remark: listed apart in the source
[20] = target: T1, Nuclear receptor ROR-gamma; assay: Inverse agonist activity at human N-terminal His6-tagged RORgamma (262 to 507 residues) expressed in Escherichia coli BL21 (DE3) assessed as inhibition of biotinylated co-activator SRC1-4 peptide recruitment by alphascreen assay
Bile acid receptor [21] = target: T4, Bile acid receptor; remark: listed apart in the source
[22] = target: T5, Nuclear receptor ROR-alpha; remark: listed apart in the source
[23] = target: T7, Bile acid receptor (Homo sapiens) (UniProt Q96RI1); assay: Inverse agonist activity at Gal4-fused FXR LBD (unknown origin) expressed in 293T cells measured after 24 hrs by dual-luciferase reporter gene assay relative to control; assay type: cell-based
T7 sequence (whole entry): T4 sequence (Q96RI1 whole entry)

IC50 [1]	ΔTm [2]	Structure (SMILES)	other results
1080 nM	6.5 °C	O=C(CCCC1CCCCC1)Nc1ccc(-c2ccc(C(O)(C(F)(F)F)C(F)(F)F)cc2F)cc1	
930 nM	5.4 °C	COC(=O)CCCC(=O)Nc1ccc(-c2ccc(C(O)(C(F)(F)F)C(F)(F)F)cc2F)cc1	
8050 nM	0 °C	CNC(=O)c1ccc(CS(=O)(=O)Nc2ccc(-c3ccc(C(O)(C(F)(F)F)C(F)(F)F)cc3F)cc2)cc1	
7550 nM	0 °C	N#Cc1ccc(CS(=O)(=O)Nc2ccc(-c3ccc(C(O)(C(F)(F)F)C(F)(F)F)cc3F)cc2)cc1	
	1.5 °C	Nc1ccc(CC(=O)Nc2ccc(-c3ccc(C(O)(C(F)(F)F)C(F)(F)F)cc3F)cc2)cc1	
2960 nM	2 °C	COC(=O)c1ccccc1CS(=O)(=O)Nc1ccc(-c2ccc(C(O)(C(F)(F)F)C(F)(F)F)cc2F)cc1	
	0 °C	O=C(O)c1ccc(CS(=O)(=O)Nc2ccc(-c3ccc(C(O)(C(F)(F)F)C(F)(F)F)cc3F)cc2)cc1	Activity [18]: 23%
	1.5 °C	Nc1ccccc1CC(=O)Nc1ccc(-c2ccc(C(O)(C(F)(F)F)C(F)(F)F)cc2F)cc1	
1980 nM	5.2 °C	O=C(CCc1ccccc1)Nc1ccc(-c2ccc(C(O)(C(F)(F)F)C(F)(F)F)cc2F)cc1	
1490 nM	3.5 °C	O=[N+]([O-])c1cccc(CS(=O)(=O)Nc2ccc(-c3ccc(C(O)(C(F)(F)F)C(F)(F)F)cc3F)cc2)c1	
1830 nM	5.9 °C	CCCCCC(=O)Nc1ccc(-c2ccc(C(O)(C(F)(F)F)C(F)(F)F)cc2F)cc1	
820 nM	5.8 °C	CCCCCCC(=O)Nc1ccc(-c2ccc(C(O)(C(F)(F)F)C(F)(F)F)cc2F)cc1	IC50 [20]: 5310 nM; IC50 (Bile acid receptor [21]): 1250 nM; IC50 [8]: Not Active; IC50 [22]: 1740 nM; %max [23]: 93%; IC50 [17]: Not Active
90 nM	8 °C	COC(=O)c1ccc(CS(=O)(=O)Nc2ccc(-c3ccc(C(O)(C(F)(F)F)C(F)(F)F)cc3F)cc2)cc1	IC50 [20]: 4830 nM; IC50 [8]: Not Active; IC50 (Bile acid receptor [9]): Not Active; IC50 [15]: Not Active; IC50 [17]: Not Active

The next lines start with the molecule.

Structure (SMILES)	IC50 [1]	ΔTm [2]	other results
CS(=O)(=O)c1ccc(CC(=O)Nc2ccc(-c3ccc(C(O)(C(F)(F)F)C(F)(F)F)cc3F)cc2)cc1		7.8 °C	AUC(0-t) (in vivo [3]): 21600 ng·h/mL; remaining at 1 h, 10 µM (in vitro): 78%; Tmax (in vivo [4]): 4.8 min; AUC(0-inf) (in vivo [5]): 10400 ng·h/mL; Vz [6]: 3544 mg/kg; AUC(0-inf) (in vivo [7]): 24500 ng·h/mL; IC50 [8]: Not Active; IC50 (Bile acid receptor [9]): Not Active; half-life (in vivo [10]): 8.67 h; half-life (in vivo [11]): 12.7 h; Cmax (in vivo [12]): 1420 ng/mL; bioavailability (in vivo [13]): 52%; Cmax (in vivo [14]): 980 ng/mL; IC50 [15]: Not Active; AUC(0-t) (in vivo [16]): 7660 ng·h/mL; IC50 [17]: Not Active
O=C(Cc1ccc([N+](=O)[O-])cc1)Nc1ccc(-c2ccc(C(O)(C(F)(F)F)C(F)(F)F)cc2F)cc1		6 °C	
O=[N+]([O-])c1ccccc1CS(=O)(=O)Nc1ccc(-c2ccc(C(O)(C(F)(F)F)C(F)(F)F)cc2F)cc1	7660 nM	1 °C	
CCCCC(=O)Nc1ccc(-c2ccc(C(O)(C(F)(F)F)C(F)(F)F)cc2F)cc1		6.3 °C	
CS(=O)(=O)c1ccc(CS(=O)(=O)Nc2ccc(-c3ccc(C(O)(C(F)(F)F)C(F)(F)F)cc3F)cc2)cc1	7760 nM	1 °C	
O=[N+]([O-])c1ccc(CS(=O)(=O)Nc2ccc(-c3ccc(C(O)(C(F)(F)F)C(F)(F)F)cc3F)cc2)cc1	2220 nM	1.5 °C	
COC(=O)CCC(=O)Nc1ccc(-c2ccc(C(O)(C(F)(F)F)C(F)(F)F)cc2F)cc1	460 nM	5.2 °C	
O=C(CCC(F)(F)F)Nc1ccc(-c2ccc(C(O)(C(F)(F)F)C(F)(F)F)cc2F)cc1	3080 nM	7.8 °C	
COC(=O)c1cccc(CS(=O)(=O)Nc2ccc(-c3ccc(C(O)(C(F)(F)F)C(F)(F)F)cc3F)cc2)c1	4240 nM	4 °C	
NC(=O)c1ccc(CS(=O)(=O)Nc2ccc(-c3ccc(C(O)(C(F)(F)F)C(F)(F)F)cc3F)cc2)cc1	8720 nM	0 °C	
O=C(Cc1ccccc1[N+](=O)[O-])Nc1ccc(-c2ccc(C(O)(C(F)(F)F)C(F)(F)F)cc2F)cc1		4.2 °C	AUC(0-t) (in vivo [3]): 3220 ng·h/mL; remaining at 1 h, 10 µM (in vitro): 79%; AUC(0-inf) (in vivo [5]): 6440 ng·h/mL; Vz [6]: 3425 mg/kg; IC50 [8]: Not Active; IC50 (Bile acid receptor [9]): Not Active; Tmax (in vivo [19]): 8 h; half-life (in vivo [11]): 7.67 h; Cmax (in vivo [12]): 721 ng/mL; bioavailability (in vivo [13]): 19%; Cmax (in vivo [14]): 839 ng/mL; AUC(0-t) (in vivo [16]): 3340 ng·h/mL; IC50 [17]: Not Active
CC(=O)CCCC(=O)Nc1ccc(-c2ccc(C(O)(C(F)(F)F)C(F)(F)F)cc2F)cc1	1520 nM	5 °C	
